Measured values: patent US11244760B2, “Prediction device based on inter-organ cross talk system” (KARYDO THERAPEUTIX, INC., priority 2015, dated 2022)
Values joined by “and” are separate entries in the source; they are usually repeats but may differ in a detail not shown here. Equal values may be shown once.

Columns and labels:
Saa1 = experiment: D-iOrgans real-time PCR, STZ/Control relative expression, Saa1; type: in vivo, mouse; details: liver of the STZ administration mice
Protocol: (§1) 1 μg of total RNA obtained from each tissue was used as a template for cDNA synthesis, and cDNA was synthesized using Oligo dT20 primer according to the standard protocol of Superscript III First-Strand Synthesis Supermix (Life Technologies). After the synthesized cDNA was diluted 20-fold with 10-fold diluted TE buffer (10 mM Tris-HCl, pH 8.0, 0.1 mM EDTA), real-time PCR was performed with a […] (Roche) according to the standard protocol of LightCycler 480 SYBR Green I Master (Roche) and Cp values were measured. The relative expression level of each gene relative to the reference gene was calculated by comparing the Cp value obtained for each gene with the Cp value for β2-microglobulin (B2m) or Maea as a reference gene, and MI/Sham was determined. However, with the primer set for Hba-a, Hba-a1 and Hba-a2 cannot be distinguished in PCR, and with the primer set for Hbb-b, Hbb-bs, and Hbb-bt cannot be distinguished in PCR. […]
(§2) Real-time PCR was conducted according to the procedure described in 1-4 (4) of “I. iOrgans” to measure Cp values. The relative expression level of each gene relative to the reference gene was calculated by comparing the Cp value obtained for each gene with the Cp value for β2-microglobulin (B2m) or Maea as a reference gene to, and STZ/Control was determined. […]

[1] = Body weight at dissection after administration of STZ; type: in vivo, mouse; details: STZ 75 mg/kg intraperitoneally for 3 consecutive days, 4-week-old male C57BL/6NCr Slc mice; individual animals
Protocol: (§3) 0.01% citrate buffer solution (pH 4.5) of streptozotocin (STZ) was intraperitoneally administered to 4-week-old male C57BL/6NCr Slc mice in an amount of 75 mg/kg in terms of STZ for 3 consecutive days (administered solution amount: 10 mL/kg). 0.01% citrate buffer solution (pH 4.5), which is a solvent, was intraperitoneally administered to the control group for 3 consecutive days (administered solution amount: 10 mL/kg). The animals from which the organs and tissue were to be collected were fasted overnight from the day before dissection. On the day of dissection, the tail vein of each mouse was cut, and the blood glucose level was measured with a simple blood glucose meter. On the following day, the mice were euthanized by cervical dislocation without anesthesia, and the organs and tissue were collected. After the wet weights of the collected organs and tissue were measured, the organs and tissue were rapidly frozen in liquid nitrogen and stored at −80° C.

Hamp = experiment: D-iOrgans real-time PCR, STZ/Control relative expression, Hamp; type: in vivo, mouse
Protocol: as §1, §2

[2] = administered to a mouse for a week or more; cited from earlier work
[3] = Blood glucose level after administration of STZ (simple blood glucose meter, tail vein); type: in vivo, mouse; details: STZ 75 mg/kg intraperitoneally for 3 consecutive days, 4-week-old male C57BL/6NCr Slc mice, fasted overnight; individual animals
Protocol: as §3

CN(N=O)C(=O)N[C@H]1C(O)O[C@H](CO)[C@@H](O)[C@@H]1O (mixture of isomers) [STZ, streptozotocin]
Expression of Saa1 in the liver (STZ/Control) (Saa1): increase
Body weight at dissection [1]: 12.8 g (2×) and 10.3 g
Expression of Hamp in the heart (STZ/Control) (Hamp; heart, STZ administration mice, day after 3 days of STZ): increase
Predicted side effect in the heart from Hamp expression (Hamp; inferred from known function of Hamp (iron metabolism)): decrease the amount of iron in cardiac cells
Glycemic state after long administration [2]: becomes hyperglycemic
Blood glucose [3]: 65 mg/dL and 83 mg/dL and 42 mg/dL
